A value given as a limit tells only on which side of the number the result lay.

Here are results for eight compounds from BindingDB's records for doi:10.7270/Q2PR7TDC (Burnham Center For Chemical Genomics, 2010).

This assay is described as follows: analog potency on TNFa NF-kB signaling – cell-based, revised, SAR follow-up (AID 2337).

The compound `CCCOC1=CC(=O)C(C=NNC(=S)Nc2ccccc2[N+](=O)[O-])C=C1` (stereo not drawn) [1-(2-nitrophenyl)-3-[[(E)-(6-oxo-4-propoxy-1-cyclohexa-2,4-dienylidene)methyl]amino]thiourea] returned an IC50 of 0.88 µM.
Consider `N#CC(C(=O)COC(=O)CSc1ccc2ccccc2c1)c1nc2ccccc2[nH]1` (stereo not drawn) [[3-cyano-3-(1,3-dihydrobenzimidazol-2-ylidene)-2-oxopropyl] 2-naphthalen-2-ylsulfanylacetate], for which the IC50 is above 20 µM.
The compound `Cc1ccc(O)c(/N=C/C2=CC(Cc3ccccc3)C=C([N+](=O)[O-])C2=O)c1` (stereo not drawn) [(6E)-6-[[(5-methyl-2-oxidanyl-phenyl)amino]methylidene]-2-nitro-4-(phenylmethyl)cyclohexa-2,4-dien-1-one] registered an IC50 above 20 µM.
`Cc1cc(SCC(=O)OCC(=O)C(C#N)c2nc3ccccc3[nH]2)c(C)cc1Br` (stereo not drawn) returned an IC50 above 20 µM.
For `Cc1cc(Br)ccc1SCC(=O)OCC(=O)C(C#N)c1nc2ccccc2[nH]1` (stereo not drawn) [2-[(4-bromo-2-methylphenyl)thio]acetic acid [3-cyano-3-(1,3-dihydrobenzimidazol-2-ylidene)-2-oxopropyl] ester], the IC50 was above 20 µM.
As to `Cc1ccc(C)c(SCC(=O)OCC(=O)C(C#N)c2nc3ccccc3[nH]2)c1` (stereo not drawn) [MLS000392255], the IC50 was above 20 µM.
In turn, `N#CC(C(=O)COC(=O)CSc1ccc(Cl)cc1)c1nc2ccccc2[nH]1` (stereo not drawn) [MLS-0208254.0001] registered an IC50 above 20 µM.
Regarding `CCOC1=CC=CC(C=NNC(=S)Nc2ccccc2[N+](=O)[O-])C1=O` (stereo not drawn) [MLS-0270696.0001], half-maximal inhibition (IC50) was put at 0.414 µM.
